These results are taken from ChEMBL document CHEMBL1201862, “PubChem BioAssay data set” (2004).

Molecules are shown by their SMILES.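 Following 48 hours of exposure in 96-well plates, responses at five concentrations were used to interpolate endpoints linearly. GI50 marks 50% less growth.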 Calls of active or inactive are those of the source. Cut-off read from the data, not from the text of the source: active = GI50 up to about 1.1 µM and inactive = higher. A value given as a limit tells only on which side of the number the result lay.

Among the test systems are K562; PC-3; Malme-3M; HOP-62; OVCAR-3; SK-MEL-28; SN12C; SR; TK-10; SK-MEL-2; SW-620; MDA-MB-231; MDA-MB-435; NCI-H522; MOLT-4; ACHN; COLO 205; RPMI-8226; HOP-92; EKVX.
Holding throughout (assay): NCI anticancer screen, dose series, 48 h

`CC(C)(C)COS(=O)OCC(C)(C)C`: the GI50 in the experiment with K562, in the experiment on PC-3, in the experiment with Malme-3M, with HOP-62, in the experiment on OVCAR-3 and with SK-MEL-28 was > 100 µM (inactive) throughout. The GI50 in the experiment on SN12C, in the experiment with SR, in the experiment on TK-10, with SK-MEL-2, with SW-620 and in the experiment on MDA-MB-231 was > 100 µM (inactive) throughout. Moreover, the GI50 in the experiment on MDA-MB-435, in the experiment with NCI-H522, in the experiment on MOLT-4, with ACHN, in the experiment with COLO 205 and in the experiment with RPMI-8226 was > 100 µM (inactive) in each case. The GI50 in the experiment on HOP-92 and with EKVX was > 100 µM (inactive) throughout.
Turning to `CC(=O)NC(CS)C(=O)O` (stereo not given), the GI50 was 21700 µM (inactive) with K562; 33200 µM (inactive) in the experiment with PC-3; 8220 µM (inactive) in the experiment with Malme-3M; 12800 µM (inactive) in the experiment on HOP-62; 16800 µM (inactive) in the experiment on OVCAR-3; 19900 µM (inactive) with SK-MEL-28. In addition, the GI50 with SN12C was 26300 µM (inactive); in the experiment on SR, 44100 µM (inactive); in the experiment with TK-10, 10000 µM (inactive); in the experiment with SK-MEL-2, 18500 µM (inactive); in the experiment on SW-620 it was 11000 µM (inactive); in the experiment with MDA-MB-231, 11300 µM (inactive). For the same compound, the GI50 with MDA-MB-435 was 17800 µM (inactive); in the experiment with NCI-H522 it was 6500 µM (inactive); with MOLT-4 it was 16400 µM (inactive); in the experiment with ACHN it was 16600 µM (inactive); in the experiment on COLO 205, 14600 µM (inactive); in the experiment on RPMI-8226, 746 µM (inactive). For the same compound, the GI50 with HOP-92 is 12500 µM (inactive); in the experiment on EKVX, 4670 µM (inactive).
Consider `O=C(NC(=O)c1c(F)cccc1F)Nc1cccc(Oc2ncc(Cl)cn2)c1`, for which the GI50 in the experiment on K562 is 3.1 µM (inactive); in the experiment on PC-3, > 100 µM (inactive); in the experiment on Malme-3M, > 68.4 µM (inactive); with HOP-62, 29.6 µM (inactive); in the experiment on OVCAR-3, 40.4 µM (inactive); with SK-MEL-28, > 100 µM (inactive). Further, the GI50 is 45.1 µM (inactive) with SN12C; 6.1 µM (inactive) with SR; > 100 µM (inactive) in the experiment with TK-10; > 51.6 µM (inactive) in the experiment on SK-MEL-2; 4.3 µM (inactive) with SW-620; > 71.6 µM (inactive) in the experiment on MDA-MB-231. For the same compound, the GI50 in the experiment with MDA-MB-435 was 1.63 µM (inactive); in the experiment with NCI-H522, 20.3 µM (inactive); in the experiment on MOLT-4, > 80.5 µM (inactive); in the experiment with ACHN, 99.3 µM (inactive); in the experiment on COLO 205, 3.85 µM (inactive); in the experiment with RPMI-8226, > 94.8 µM (inactive). Also, the GI50 was 16.6 µM (inactive) with HOP-92 and > 100 µM (inactive) in the experiment with EKVX.
In the case of `COC(=O)C1=C(C)NC2=C(C(=O)c3ccccc32)C1c1cn(-c2ccccc2)nc1-c1ccccc1` (stereo not given), the GI50 was 16.3 µM (inactive) with K562; 4.36 µM (inactive) in the experiment with PC-3; > 84.7 µM (inactive) in the experiment on Malme-3M; > 100 µM (inactive) in the experiment on HOP-62; > 48.1 µM (inactive) in the experiment with OVCAR-3; 96.8 µM (inactive) in the experiment on SK-MEL-28. Besides, the GI50 in the experiment on SN12C was > 100 µM (inactive); with SR, 2 µM (inactive); with TK-10 it was > 100 µM (inactive); in the experiment with SK-MEL-2, > 59.3 µM (inactive); in the experiment on SW-620 it was > 100 µM (inactive); in the experiment with MDA-MB-231, > 100 µM (inactive). Besides, the GI50 was 16.6 µM (inactive) in the experiment with MDA-MB-435; > 53.5 µM (inactive) with NCI-H522; 2.96 µM (inactive) in the experiment with MOLT-4; 17.2 µM (inactive) with ACHN; > 100 µM (inactive) in the experiment on COLO 205; 2.67 µM (inactive) in the experiment on RPMI-8226. In addition, the GI50 with HOP-92 is 18.3 µM (inactive); in the experiment on EKVX it was > 42.9 µM (inactive).
With `O=C(ON=c1c2ccccc2ccc2ccccc12)c1ccccc1`, the GI50 with K562 was 8.81 µM (inactive); in the experiment on PC-3, 40.1 µM (inactive); with Malme-3M it was 22.9 µM (inactive); with HOP-62 it was 22 µM (inactive); in the experiment with OVCAR-3 it was 23.5 µM (inactive); in the experiment on SK-MEL-28, 29.8 µM (inactive). The GI50 was 27.2 µM (inactive) in the experiment on SN12C; 8.39 µM (inactive) with SR; > 75.9 µM (inactive) with TK-10; 30.1 µM (inactive) in the experiment on SK-MEL-2; 18.1 µM (inactive) in the experiment on SW-620; 22.9 µM (inactive) in the experiment on MDA-MB-231. Also, the GI50 was 20.7 µM (inactive) with MDA-MB-435; 20.7 µM (inactive) in the experiment with NCI-H522; 7.96 µM (inactive) in the experiment on MOLT-4; 34.9 µM (inactive) in the experiment on ACHN; 18.1 µM (inactive) in the experiment on COLO 205; 24.4 µM (inactive) in the experiment on RPMI-8226. For the same compound, the GI50 in the experiment on HOP-92 was 26.2 µM (inactive); with EKVX, 35.7 µM (inactive).
For the compound `COC(=O)[C@H]1[C@H](C(=O)OC)[C@@H](C)c2c(ccc3c2[nH]c2ccccc23)[C@@H]1C`, the GI50 in the experiment on K562 was 0.9 µM (active); with PC-3 it was 37.4 µM (inactive); with Malme-3M, 49.8 µM (inactive); in the experiment with HOP-62, 35.6 µM (inactive); in the experiment with OVCAR-3, 69.2 µM (inactive); with SK-MEL-28 it was > 100 µM (inactive). Further, the GI50 in the experiment with SN12C was 13.2 µM (inactive); in the experiment with SR, 0.521 µM (active); with TK-10, 26.4 µM (inactive); with SK-MEL-2, 34.1 µM (inactive); with SW-620, 95.1 µM (inactive); in the experiment with MDA-MB-231, 25.6 µM (inactive). Besides, the GI50 in the experiment with MDA-MB-435 was > 100 µM (inactive); with NCI-H522 it was 41.5 µM (inactive); in the experiment with MOLT-4, 0.3 µM (active); in the experiment with ACHN it was 44.5 µM (inactive); in the experiment on COLO 205, 66.7 µM (inactive); in the experiment on RPMI-8226, 11.8 µM (inactive). The GI50 in the experiment with HOP-92 was 37.9 µM (inactive); with EKVX, 69.8 µM (inactive).
As to `S=C(Nc1cccc(C2(N3CCCCC3)CCCCC2)c1)Nc1cccc(C2(N3CCCCC3)CCCCC2)c1`, the GI50 was 11.2 µM (inactive) with K562; 26.9 µM (inactive) in the experiment with PC-3; 20.7 µM (inactive) in the experiment on Malme-3M; 39.2 µM (inactive) with HOP-62; 21.8 µM (inactive) in the experiment with OVCAR-3; 17.9 µM (inactive) in the experiment on SK-MEL-28. Further, the GI50 is 31.6 µM (inactive) with SN12C; 13.6 µM (inactive) in the experiment with SR; 2.69 µM (inactive) in the experiment on TK-10; 18.4 µM (inactive) in the experiment on SK-MEL-2; 37.8 µM (inactive) in the experiment on SW-620; 15.6 µM (inactive) in the experiment on MDA-MB-231. For the same compound, the GI50 in the experiment with MDA-MB-435 is 16 µM (inactive); in the experiment with NCI-H522, 20.4 µM (inactive); in the experiment on MOLT-4, 13.5 µM (inactive); in the experiment on ACHN, 23.9 µM (inactive); in the experiment on COLO 205, 17.1 µM (inactive); in the experiment on RPMI-8226 it was 10.6 µM (inactive). The GI50 with HOP-92 is 10.3 µM (inactive); with EKVX it was 38 µM (inactive).
Regarding `CCCCCCCCCCCCOP(=O)(O)OCC(N)C(=O)O` (stereo not given), the GI50 was 29.5 µM (inactive) in the experiment with K562; 15.3 µM (inactive) with PC-3; > 100 µM (inactive) in the experiment on Malme-3M; 15.4 µM (inactive) with HOP-62; 17.3 µM (inactive) in the experiment with OVCAR-3; 94.8 µM (inactive) with SK-MEL-28. Also, the GI50 in the experiment with SN12C is 22.1 µM (inactive); in the experiment with SR, 22 µM (inactive); with TK-10, 24.7 µM (inactive); in the experiment with SK-MEL-2, 22.8 µM (inactive); with SW-620, 44.4 µM (inactive); in the experiment on MDA-MB-231, 23.9 µM (inactive). The GI50 in the experiment with MDA-MB-435 was 18.2 µM (inactive); in the experiment on NCI-H522, 31.8 µM (inactive); with MOLT-4, 11.2 µM (inactive); in the experiment with ACHN, 34.1 µM (inactive); with COLO 205, > 100 µM (inactive); in the experiment on RPMI-8226, 24.7 µM (inactive). For the same compound, the values for the GI50 in the experiment on HOP-92 and in the experiment on EKVX were 20.5 µM (inactive) and 69.8 µM (inactive), respectively.
Turning to `O=C(O)/C(Cl)=C(/Cl)C(=O)Nc1cccc(Cl)c1`, the GI50 was 6.43 µM (inactive) in the experiment with K562; 18.5 µM (inactive) in the experiment on PC-3; 16.9 µM (inactive) in the experiment with Malme-3M; > 59.4 µM (inactive) with HOP-62; 16.7 µM (inactive) in the experiment on OVCAR-3; 17.9 µM (inactive) in the experiment with SK-MEL-28. The GI50 in the experiment with SN12C is 20 µM (inactive); in the experiment on SR it was 8.24 µM (inactive); with TK-10, 18.1 µM (inactive); in the experiment on SK-MEL-2, 20.8 µM (inactive); in the experiment with SW-620 it was 12.6 µM (inactive); in the experiment with MDA-MB-231, 14.6 µM (inactive). The GI50 in the experiment with MDA-MB-435 is 19.2 µM (inactive); in the experiment on NCI-H522 it was 4.35 µM (inactive); with MOLT-4, 4.28 µM (inactive); in the experiment on ACHN it was 18.5 µM (inactive); in the experiment with COLO 205, 10.2 µM (inactive); with RPMI-8226, 12.1 µM (inactive). The GI50 was 14.6 µM (inactive) with HOP-92 and 17.9 µM (inactive) in the experiment on EKVX.
With `CCN(CC)CCOC(=O)Cc1cccc2c(=O)cc(-c3ccccc3)oc12`, the GI50 in the experiment on K562 is 40.3 µM (inactive); in the experiment on PC-3, 49.3 µM (inactive); in the experiment with Malme-3M it was 39.3 µM (inactive); in the experiment on HOP-62, 46.8 µM (inactive); in the experiment on OVCAR-3 it was 52.8 µM (inactive); in the experiment with SK-MEL-28 it was 54 µM (inactive). Also, the GI50 in the experiment on SN12C was 51.2 µM (inactive); in the experiment on SR it was 24.4 µM (inactive); with TK-10, 44.1 µM (inactive); with SK-MEL-2, > 150 µM (inactive); in the experiment with SW-620, 50.7 µM (inactive); in the experiment with MDA-MB-231 it was 26.4 µM (inactive). Further, the GI50 in the experiment with MDA-MB-435 is 55.1 µM (inactive); in the experiment on NCI-H522, 40.8 µM (inactive); with MOLT-4, 42.9 µM (inactive); with ACHN, 45.2 µM (inactive); in the experiment with COLO 205, 38.4 µM (inactive); with RPMI-8226 it was 35.8 µM (inactive). The GI50 was 21.7 µM (inactive) in the experiment with HOP-92 and 40.7 µM (inactive) with EKVX.
